Experiments:
[1] = molecular target: T1, Aminopeptidase N (Sus scrofa, UniProt P15145); assay: Inhibition of pig kidney microsomal aminopeptidase N after 30 mins by UV-VIS spectrophotometry
T1 sequence (P15145 whole entry): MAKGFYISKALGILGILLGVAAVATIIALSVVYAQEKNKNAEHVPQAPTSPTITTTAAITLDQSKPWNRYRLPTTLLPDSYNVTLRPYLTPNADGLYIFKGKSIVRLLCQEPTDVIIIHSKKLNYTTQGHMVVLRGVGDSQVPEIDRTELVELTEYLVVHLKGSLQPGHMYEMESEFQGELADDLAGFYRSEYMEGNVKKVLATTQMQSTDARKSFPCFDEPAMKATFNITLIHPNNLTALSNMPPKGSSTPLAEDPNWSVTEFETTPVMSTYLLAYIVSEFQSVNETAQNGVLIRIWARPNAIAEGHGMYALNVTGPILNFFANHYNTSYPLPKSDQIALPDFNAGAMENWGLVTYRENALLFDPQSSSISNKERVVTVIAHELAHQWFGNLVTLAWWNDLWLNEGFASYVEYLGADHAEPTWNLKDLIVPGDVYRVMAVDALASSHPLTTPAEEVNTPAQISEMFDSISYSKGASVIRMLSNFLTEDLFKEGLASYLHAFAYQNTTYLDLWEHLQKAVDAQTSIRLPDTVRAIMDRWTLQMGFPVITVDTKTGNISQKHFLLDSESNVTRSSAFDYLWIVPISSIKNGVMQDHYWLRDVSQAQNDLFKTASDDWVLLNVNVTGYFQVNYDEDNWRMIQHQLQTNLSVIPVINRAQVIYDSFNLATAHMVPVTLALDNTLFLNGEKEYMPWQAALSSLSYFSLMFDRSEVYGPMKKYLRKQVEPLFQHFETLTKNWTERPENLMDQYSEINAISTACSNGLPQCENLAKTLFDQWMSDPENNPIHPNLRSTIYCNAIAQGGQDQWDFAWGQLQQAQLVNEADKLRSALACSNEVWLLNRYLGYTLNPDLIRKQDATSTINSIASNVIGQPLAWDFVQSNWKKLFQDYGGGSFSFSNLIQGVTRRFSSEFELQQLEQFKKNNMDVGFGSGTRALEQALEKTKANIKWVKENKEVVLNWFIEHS

[2] = molecular target: 72 kDa type IV collagenase (Homo sapiens, UniProt P08253); assay: Inhibition of MMP2
Sequence of 72 kDa type IV collagenase (P08253 whole entry): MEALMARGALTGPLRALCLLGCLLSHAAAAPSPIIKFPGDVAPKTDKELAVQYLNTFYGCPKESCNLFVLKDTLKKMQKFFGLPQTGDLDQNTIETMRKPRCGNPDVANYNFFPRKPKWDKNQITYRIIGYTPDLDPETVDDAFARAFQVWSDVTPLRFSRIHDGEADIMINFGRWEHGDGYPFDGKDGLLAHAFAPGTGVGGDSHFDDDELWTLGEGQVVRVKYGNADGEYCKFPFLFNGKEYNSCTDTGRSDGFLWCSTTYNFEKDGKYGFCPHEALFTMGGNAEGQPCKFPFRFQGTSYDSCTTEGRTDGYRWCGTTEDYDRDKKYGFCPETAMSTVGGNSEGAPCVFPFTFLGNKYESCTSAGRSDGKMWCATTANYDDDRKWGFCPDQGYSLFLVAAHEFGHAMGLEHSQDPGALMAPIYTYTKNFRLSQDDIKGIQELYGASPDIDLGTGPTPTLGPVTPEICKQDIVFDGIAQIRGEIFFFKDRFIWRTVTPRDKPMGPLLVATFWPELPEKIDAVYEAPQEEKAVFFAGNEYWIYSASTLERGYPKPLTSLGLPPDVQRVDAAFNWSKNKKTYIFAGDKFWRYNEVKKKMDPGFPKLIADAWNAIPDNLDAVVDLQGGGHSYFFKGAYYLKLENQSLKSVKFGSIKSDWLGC

SMILES	IC50 ([1]; read-out: IC50)	IC50 ([2]; read-out: IC50)	IC50 [1]	IC50 [2]
COC(=O)CC(NC(=O)CC[C@H](NC(=O)/C=C/c1ccc(OC)c(OC)c1)C(=O)NC(CC(=O)OC)C(=O)OC)C(=O)OC (stereo not given in full)	213 µM	341 µM		
COc1ccc(/C=C/C(=O)N[C@@H](CCC(=O)O)C(=O)Nc2cc(F)cc(F)c2)cc1OC	98.6 µM	116 µM		
COc1ccc(/C=C/C(=O)N[C@@H](CCC(=O)O)C(=O)Nc2ccccc2F)cc1OC	56.8 µM	71.4 µM		
COc1ccc(/C=C/C(=O)N[C@@H](CCC(=O)O)C(=O)Nc2ccccc2Cl)cc1OC	38.3 µM	64.3 µM		
COc1ccc(/C=C/C(=O)N[C@@H](CCC(=O)O)C(=O)Nc2cccc(Cl)c2)cc1OC	80.5 µM	121 µM		
COc1ccc(/C=C/C(=O)N[C@@H](CCC(=O)O)C(=O)Nc2ccc(C)cc2)cc1OC	20.7 µM	37.8 µM		
COc1ccc(/C=C/C(=O)N[C@@H](CCC(=O)O)C(=O)Nc2ccc(F)cc2)cc1OC	23.4 µM	47.6 µM		
COc1ccc(/C=C/C(=O)N[C@@H](CCC(=O)Nc2cc(F)cc(F)c2)C(=O)Nc2cc(F)cc(F)c2)cc1OC			Not Active	Not Active
COc1ccc(/C=C/C(=O)N[C@@H](CCC(=O)Nc2ccc(C)cc2)C(=O)Nc2ccc(C)cc2)cc1OC	335 µM	398 µM		
COc1ccc(/C=C/C(=O)N[C@@H](CCC(=O)Nc2ccc(F)cc2)C(=O)Nc2ccc(F)cc2)cc1OC	371 µM	368 µM		
COC(=O)CNC(=O)[C@H](CCC(=O)O)NC(=O)/C=C/c1ccc(OC)c(OC)c1	50.4 µM	79.6 µM		
COC(=O)C(C)NC(=O)[C@H](CCC(=O)O)NC(=O)/C=C/c1ccc(OC)c(OC)c1 (stereo not given in full)	55.1 µM	83.2 µM		
COc1ccc(/C=C/C(=O)N[C@@H](CCC(=O)O)C(=O)NCC(C)C)cc1OC	207 µM	256 µM		
COc1ccc(/C=C/C(=O)N[C@@H](CCC(=O)Nc2ccc(Cl)cc2)C(=O)Nc2ccc(Cl)cc2)cc1OC	405 µM	471 µM		
COc1ccc(/C=C/C(=O)N[C@@H](CCC(=O)Nc2ccc(Br)cc2)C(=O)Nc2ccc(Br)cc2)cc1OC	578 µM			Not Active
COc1ccc(/C=C/C(=O)N[C@@H](CCC(=O)Nc2ccccc2F)C(=O)Nc2ccccc2F)cc1OC	405 µM	471 µM		
COc1ccc(/C=C/C(=O)N[C@@H](CCC(=O)O)C(=O)NCc2ccccc2)cc1OC	178 µM	236 µM		
CNC(=O)[C@H](CCC(=O)O)NC(=O)/C=C/c1ccc(OC)c(OC)c1	126 µM	159 µM		
CCNC(=O)[C@H](CCC(=O)O)NC(=O)/C=C/c1ccc(OC)c(OC)c1	184 µM	211 µM		
CCCNC(=O)[C@H](CCC(=O)O)NC(=O)/C=C/c1ccc(OC)c(OC)c1	237 µM	284 µM		
COC(=O)C(NC(=O)[C@H](CCC(=O)O)NC(=O)/C=C/c1ccc(OC)c(OC)c1)C(C)C (stereo not given in full)	69.2 µM	76.8 µM		
COc1ccc(/C=C/C(=O)N[C@@H](CCC(=O)O)C(=O)Nc2ccc(Br)cc2)cc1OC	58.1 µM	71.2 µM		
COc1ccc(/C=C/C(=O)N[C@@H](CCC(=O)O)C(=O)Nc2ccc(Cl)cc2)cc1OC	34.5 µM	59.9 µM		
COC(=O)CC(NC(=O)[C@H](CCC(=O)O)NC(=O)/C=C/c1ccc(OC)c(OC)c1)C(=O)OC (stereo not given in full)	60.5 µM	101 µM		
COC(=O)C(Cc1ccc(F)cc1)NC(=O)[C@H](CCC(=O)O)NC(=O)/C=C/c1ccc(OC)c(OC)c1 (stereo not given in full)	43.7 µM	76.5 µM		

Source: ChEMBL document CHEMBL1153827, “Novel aminopeptidase N inhibitors derived from antineoplaston AS2-5 (Part II)” (Bioorg Med Chem, 2009)
